# Laboratory results taken from patent publication US5326774A, “Pharmaceutical preparation of antihypertensive, antianginal, antiarrhythmic and antiglaucomic action” (priority 1992, dated 1994).
# “Also recorded” adds a separate entry of the source. Like-named read-outs stand apart in the source and are kept apart here.
# Tests used:
# coronary vessels = experiment: Coronary vessel dilatation and myocardial perfusion in anesthetized rats; format: in vivo, rat; settings: 0.1 mg/kg i.v. (compound of the invention); hydrochloride
# Source text: The coronarodilative effect of the compound according to the invention is not associated with its β- and α-adrenoceptor blocking activity and its influence on the systemic perfusion pressure and pump function of the heart. […]
# arterial pressure [1] = experiment: Arterial pressure and heart rate in conscious normotensive rats, oral; format: in vivo, rat; settings: 10 and 50 mg/kg oral, 1 hour
# β1-adrenoceptor = target: T1, β1-adrenoceptor (Rattus norvegicus, UniProt P18090); experiment: Oral administration, isadrin-initiated positive chronotropism in rats; format: in vivo
# T1 construct: positive chronotropic and depressor effects in the anesthetized rats; from tissue; host or cells: whole living rat (heart rate response to isadrin); endogenous receptor
# Procedure: The effects of oral administration of the compound according to the invention as compared with the known drugs on the isadrin-initiated positive chronotropism in rats were tested.
# [2] = test system: strophantin-induced arrhythmia; format: in vivo, guinea pig
# arterial pressure [3] = experiment: Hypotensive activity in anesthetized cats, i.v.; format: in vivo, cat; settings: for arterial pressure: control 163±8
# [4] = test system: electrically induced ventricular fibrillation; experiment: Threshold of electrically induced ventricular fibrillation in anesthetized cats; format: in vivo, cat
# [5] = test system: mesaton-initiated pressor effect; experiment: Mesaton-initiated pressor effect in cats; set-up: species or system cat; settings: in vivo (rats and cats), i.v.
# Procedure: The same tests were carried out on cats.
# Source text for albino mice: LD50 values were estimated by using the Litchfield-Wilckoxon method.
# T1 sequence (P18090 whole entry): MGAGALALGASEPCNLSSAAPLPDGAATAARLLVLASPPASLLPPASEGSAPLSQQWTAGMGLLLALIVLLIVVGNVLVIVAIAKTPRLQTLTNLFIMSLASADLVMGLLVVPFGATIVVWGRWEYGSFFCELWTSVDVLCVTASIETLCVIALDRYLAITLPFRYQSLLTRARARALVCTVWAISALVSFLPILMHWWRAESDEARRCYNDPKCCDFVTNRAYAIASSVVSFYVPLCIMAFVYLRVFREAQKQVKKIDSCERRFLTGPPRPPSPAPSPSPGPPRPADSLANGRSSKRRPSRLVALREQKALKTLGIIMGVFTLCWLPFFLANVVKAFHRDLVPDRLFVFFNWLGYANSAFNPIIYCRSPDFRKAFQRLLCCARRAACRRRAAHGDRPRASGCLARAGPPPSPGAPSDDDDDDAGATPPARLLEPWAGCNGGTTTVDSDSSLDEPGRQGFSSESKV
structure (smiles),measurement,setting,value
"Cc1noc(COc2ccccc2OCC(O)CNC(C)(C)C)n1.Cl (centres unmarked) [Compound of the invention, 3-methyl-5-[2-(3-tert.butylamino-2-hydroxypropoxy)phenoxymethyl]-1,2,4-oxadiazole hydrochloride]",coronary vessel dilatation / myocardial perfusion,coronary vessels,dilatation (with confidence) of coronary vessels; also recorded: direct coronarodilating effect
same,arterial pressure,arterial pressure [1],arterial pressure lowering
same,heart rate,arterial pressure [1],a decrease in heart rate
same,β1-adrenoceptor blocking activity compared with pindolol,β1-adrenoceptor,inferior to pindolol
same,"β1-adrenoceptor blocking activity, superior to labetalol by",β1-adrenoceptor,35 times
same,"β1-adrenoceptor blocking activity, superior to propranolol by",β1-adrenoceptor,14.8 times
same,Arrhythmogenic dose of strophantin as compared with control: extrasystoles,[2]; 0.1 mg/kg i.v.,118%
same,Dose of strophantin as compared with control: ventricular fibrillation,[2]; 0.1 mg/kg i.v.,115.6%
same,Lethal dose of strophantin as compared with control: animal death,[2]; 0.1 mg/kg i.v.,118.7%
same,Arrhythmogenic dose of strophantin as compared with control: extrasystoles,[2]; 0.3 mg/kg i.v.,125.9%
same,Dose of strophantin as compared with control: ventricular fibrillation,[2]; 0.3 mg/kg i.v.,113.1%
same,Lethal dose of strophantin as compared with control: animal death,[2]; 0.3 mg/kg i.v.,123.5%
same,Arrhythmogenic dose of strophantin as compared with control: extrasystoles,[2]; 1.0 mg/kg i.v.,148.2%
same,Dose of strophantin as compared with control: ventricular fibrillation,[2]; 1.0 mg/kg i.v.,147.2%
same,Lethal dose of strophantin as compared with control: animal death,[2]; 1.0 mg/kg i.v.,142.6%
same,Arrhythmogenic dose of strophantin as compared with control: extrasystoles,[2]; 3.0 mg/kg i.v.,157.0%
same,Dose of strophantin as compared with control: ventricular fibrillation,[2]; 3.0 mg/kg i.v.,170.2%
same,Lethal dose of strophantin as compared with control: animal death,[2]; 3.0 mg/kg i.v.,150.7%
same,antiarrhythmic activity and efficacy,[2]; 0.1-3.0 mg/kg i.v.,"superior to propranolol, oxprenolol and labetalol"
same,arterial pressure,arterial pressure [3]; 0.02 mg/kg,147±12 mm Hg
same,arterial pressure,arterial pressure [3]; 0.1 mg/kg,132±5 mm Hg
same,arterial pressure,arterial pressure [3]; 0.3 mg/kg,96±7 mm Hg
same,arterial pressure,arterial pressure [3]; 1.0 mg/kg,90±7 mm Hg
same,arterial pressure,arterial pressure [3]; 5.0 mg/kg,67±7 mm Hg
same,ED20,"arterial pressure [3]; Felis catus, iv, anesthetized cats, read-out: Dose resulting in lowering of arterial pressure by 20%, ED20",0.11 ± 0.01 mg/kg
same,minimal effective dose,"arterial pressure [3]; Felis catus, iv, cats, read-out: dosage from which arterial pressure lowered",0.02 mg/kg
same,hypotensive effect compared with labetalol,"arterial pressure [3]; anesthetized normotensive cats, i.v.",stronger hypotensive effect as compared with labetalol
same,"hypotensive activity, times as high as labetalol",arterial pressure [3]; comparison of ED20,9 times
same,hypotensive activity and duration compared with labetalol,arterial pressure [3]; in vivo,superior to labetalol by hypotensive activity and duration of such effect
same,duration of hypotensive effect,arterial pressure [3]; large dosages,3 to 4 h
same,duration of hypotensive effect,arterial pressure [3]; small dosages,0.083 to 0.5 h
same,threshold of electrically induced ventricular fibrillation,[4]; 1 mg/kg,did not change
same,threshold of electrically induced ventricular fibrillation,[4]; 5 mg/kg,increased considerably this threshold
same,value of increasing threshold compared with propranolol and oxprenolol,[4]; 5 mg/kg,higher
same,"antiarrhythmic activity and efficacy (ventricular fibrillation threshold, strophanthin arrhythmia)","[4]; compared with propranolol, oxprenolol, pindolol and labetalol","superior to propranolol, oxprenolol, pindolol and labetalol"
same,adrenoceptor blocking activity compared with labetalol,[5],did not differ from labetalol
same,"lower toxicity compared with propranolol, oxprenolol and pindolol",albino mice; i.v.,2-4 times
same,lower toxicity than propranolol and oxprenolol,albino mice; oral,2-3 times
